Assay: gradient 5% acetonitrile 3 min, to 50% in 2 min, to 85% in 15 min, held 3 min, 100 µL/min
Details: column: Zorbax Extend-C18 2.1 x 50 mm; eluents: water / acetonitrile, 0.1% formic acid
Outline: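 Retention times come from adduct peaks that were picked computationally and then checked by hand. The standards, pure and pooled in mixtures of ~100 molecules, were run on a Zorbax Extend-C18 column (2.1 × 50 mm, 1.8 μm) at 100 μL/min with water and acetonitrile, each with 0.1% formic acid. Detection was by quadrupole time-of-flight mass spectrometry in positive and negative ionization mode, with a dead volume of 40 μL and a dwell volume of 900 μL.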

| Structure (SMILES) | RP-LC retention time [s] |
| --- | --- |
| CCC(=O)Nc1ccc(CCc2nc3ccc(C(=O)NC(C)c4ccccc4)cc3[nH]2)cc1 (stereo unspecified) | 658 |
| Cc1cnn(Cc2nc(-c3ccc(NC(=O)c4ccc(C)s4)cc3)oc2C)c1 | 940 |
| CC1CCN(c2ccc(CNc3nc4ccncc4n(C)c3=O)cc2)CC1 | 559 |
| CC(=O)N1CCc2sc(C(=O)N3CCN(c4cccc(Cl)c4)CC3)cc2C1 | 840 |
| CC(C)N1CCn2c(nc3cc(C(=O)NCc4ccccc4Br)ccc32)C1=O | 731 |
| Cc1ccc(NC(=O)Cn2cnc(C)c(C)c2=O)cc1F | 630 |
| O=C(c1ccc(Br)cc1)N1CCc2[nH]nc(C(=O)N3CCOCC3)c2C1 | 661 |
| Clc1ccc(Nc2nnc(Cc3ccncc3)c3ccccc23)cc1 | 599 |
| Cc1cc(F)ccc1NC(=O)COc1cc(C(F)(F)F)c2c(C)nn(C)c2n1 | 985 |
| C#CCOCC(O)CN1CCN(C(c2ccccc2)c2ccccc2)CC1 (stereo unspecified) | 606 |
| CC(C)c1ccc(-c2cc3c4nn(CC(=O)NCc5ccco5)c(=O)n4ccn3n2)cc1 | 946 |
| Cc1ccc(NC(=O)Nc2c(-c3ccncc3)nc3ccccn23)cc1C | 632 |
| CN(C)CCCN(C(=O)c1ccc(Br)s1)c1nc2c(F)cccc2s1 | 617 |
| Cn1cc(CCNC(=O)Cc2ccc(Cl)cc2)c2cccnc21 | 696 |
| CCN1c2cc(F)ccc2C(=O)NC12CCN(C(=O)c1ccc(C)cc1)CC2 | 807 |
| CC(C)c1ccc(NC(=O)C2CCN(c3cncnc3N3CCOCC3)CC2)cc1 | 714 |
| O=C1CCCCC(Cc2ccccc2)(C(=O)NCc2ccc(Cl)cc2)N1 (stereo unspecified) | 866 |
| O=C(NC1CC1)c1ccc(OCC2CCN(C(=O)c3c(F)cccc3Cl)CC2)cc1 | 837 |
| Cc1cc(Nc2nc(C(=O)N3CCN(c4ccccn4)CC3)cc3occc23)ccc1Br | 754 |
| COc1cc(OC)cc(-c2nc(-c3ccc4c(c3)oc(=O)n4C)no2)c1 | 1060 |
| CC(=O)N(Cc1nn(C)c2c1CN(S(=O)(=O)c1cccc(Cl)c1)CC2)c1ccccc1 | 783 |
| O=C(c1cccc(Cl)c1)N1CCc2cc(-c3ccno3)ccc21 | 999 |

| Structure (SMILES) | RP-LC retention time [s] |
| --- | --- |
| O=C1CCN(C(=O)C2CCN(C(=O)C3CCCC3)CC2)CCCCCCN1 | 652 |
| CCn1c(=O)n(CC)c2cc(S(=O)(=O)c3ccccc3)c(NC(=O)C3CC3)cc21 | 816 |
| Cn1ncc2c3ccccc3n(CC(=O)N3CCC(N4CCCCC4)CC3)c2c1=O | 613 |
| COc1ccc(-c2ccnc3nc(-c4ccccc4)nn23)cc1OC | 848 |
| Cc1ccc(N2CC(C(=O)Nc3ccc4c(c3)C(=O)N3CCCCC3CCO4)CC2=O)cc1 (stereo unspecified) | 762 |
| O=C(Cc1nnc(-c2cnccn2)o1)Nc1ccc(C(F)(F)F)cc1 | 766 |
| CCn1cc(C(=O)NCCc2ccc(Cl)cc2)c(S(=O)(=O)N2CCSCC2)n1 | 935 |
| CCc1nc(-c2csc(S(=O)(=O)N3CCC(C(=O)Nc4ccc(C(C)C)cc4)CC3)c2)no1 | 1140 |
| COc1ccc(-c2nc3cccnc3n2C2CCN(C(=O)c3cccs3)C2)cc1 (stereo unspecified) | 732 |
| COc1ccc(OC)c(NC(=O)Cn2cccc(-c3nc(-c4ccc(Cl)cc4)no3)c2=O)c1 | 1000 |
| COc1cc([C@@H]2c3cc4c(cc3[C@H](O)[C@@H](CO)[C@@H]2C(=O)NCC(C)C)OCO4)cc(OC)c1OC | 668 |
| O=C1CC(NC(=O)NCc2ccc(Cl)cc2)CN1 (stereo unspecified) | 592 |
| CCC(C(=O)Nc1ccc2c(c1)OCO2)n1cnc2nc3c(cc2c1=O)CCCC3 (stereo unspecified) | 773 |
| Cn1ncc2c(Sc3ccc(Cl)cc3)ncnc21 | 1000 |
| O=C(Cn1cccc(-c2nc(-c3ccc(Br)cc3)no2)c1=O)Nc1cccc(F)c1 | 992 |
| CCC(CC)NC(=O)C1Cn2cccc2C(=O)N1 (stereo unspecified) | 629 |
| Cc1ccc(N2C(=O)CN(S(=O)(=O)c3ccccc3)CC2(C)C(=O)NCc2ccc(F)cc2)cc1 (stereo unspecified) | 875 |
| COc1ccc(S(=O)(=O)N2CCCC(C)(C(=O)NCc3cccc(OC)c3)C2)cc1 (stereo unspecified) | 903 |
| Cc1ccc(N2CCC(NC(=O)NC(C)C)C2=O)cc1C (stereo unspecified) | 740 |
| O=C(Cc1csc2nc(-c3cccc(Br)c3)cn12)N1CCc2ccccc21 | 1040 |
| CCCCN1CCN(C(=O)c2c(C)sc3ccn(CC(C)C)c(=O)c23)CC1 | 632 |
| COC(=O)c1ccc2c(=O)n(-c3ccc(C)c(F)c3)c(N3CCSCC3)nc2c1 | 1100 |

| Structure (SMILES) | RP-LC retention time [s] |
| --- | --- |
| Cc1ccc(NC(=O)C2CCN(C(=O)C3Sc4ccccc4NC3=O)CC2)cc1F (stereo unspecified) | 804 |
| COc1ccc(OC)c(NC(=O)N2CCC(N3CCN(Cc4ccccc4)C3=O)CC2)c1 | 828 |
| Cc1ccc(NS(=O)(=O)c2cc(-c3[nH]ncc3C(=O)N3CCCCC3)oc2C)cc1 | 773 |
| COc1ccccc1OCCNS(=O)(=O)c1cc2n(c1)CCCNC2=O | 654 |
| CCOc1ccccc1NC(=O)C1CCCN(c2nc3ccccc3nc2OC)C1 (stereo unspecified) | 1220 |
| CSc1cccc(Nc2c(C(=O)N3CCSCC3)cnc3nc(C)ccc23)c1 | 581 |
| Cc1nnc(C2CCCN(C(=O)CCc3c(C)noc3C)C2)s1 (stereo unspecified) | 606 |
| Cn1nc(-c2nc(-c3cccc(F)c3)no2)c2c1CCN(C(=O)NC(C)(C)C)C2 | 964 |
| Cc1cccc(N2CCN(Cc3nc(-c4ccc(N5CCCC(C)C5)nc4)no3)CC2)c1 (stereo unspecified) | 1100 |
| CN(CC1CCOCC1)S(=O)(=O)c1cccc(F)c1 | 811 |
| Cc1ccccc1Cn1c(CN2CCC(C(=O)NCCC3=CCCCC3)CC2)cc2ccccc21 | 928 |
| CC(=O)N1CCc2cc(N3CC(C(=O)NCc4ccc(C(F)(F)F)cc4)CC3=O)ccc21 (stereo unspecified) | 748 |
| CCOC(=O)c1cc(S(=O)(=O)N2CCCC2C(=O)Nc2ccc(C)c(C)c2)cn1C (stereo unspecified) | 1020 |
| O=C(Nc1cc(-c2ccccn2)no1)c1cccc(Cl)c1 | 870 |
| O=C(NCc1ccccc1)C12CC3CCC(CC(C3)C1)C2 | 1020 |
| Cc1ccccc1S(=O)(=O)Cc1ccc(C(=O)N2CCN(c3ccccn3)CC2)o1 | 613 |
| CCN(CC)S(=O)(=O)N1CCCC(C(=O)NCCc2ccc(Cl)cc2)C1 (stereo unspecified) | 945 |
| CC(C)NC(=O)C(=O)NCc1n[nH]c(=O)c2ccccc12 | 621 |
| Cc1ccc(CNC(=O)N2CCC(n3c(C(F)(F)F)nc4cccnc43)CC2)cc1 | 844 |
| Cc1ccc(Cn2c(C(=O)NCc3ccccc3)cc3sccc32)cc1 | 864 |
| Cc1ccc(C)c(NC(=O)N2CCCC2c2nc(-c3ccc(F)cc3F)no2)c1 (stereo unspecified) | 1010 |
| CCc1ccc(-n2ncc3c(=O)n(Cc4nc(-c5ccc(Cl)cc5)no4)cnc32)cc1 | 1270 |

— the METLIN SMRT retention time set (Domingo-Almenara et al. 2019)
